One data set has as its system Nrf2. Nature of the data set: Luciferase reporter assay using H411E-ARE8L cells (Nrf2 activation). To be noted: Conc. final 0.28 μg/ml. On the technique in general: In a reporter assay the amount or activity of a reporter protein is the signal.
Data set [1] has as its system IL-6. Description: IL-6 secretion of A549 cells treated with Diesel Particulate Matter. Type of data set: cell-based, human. The text has this:
(§1) The human bronchial epithelial cell line BEAS-2B was from ATCC (American Type Culture Collection, Manassas, Va.) and cultured in Bronchial Epithelial cell Growth Medium (BEGM, Lonza, Wakersville, Md.) in CellBIND® surface plastic flasks (Corning Inc., Corning, N.Y.). The adenocarcinomic human alveolar basal epithelial A549 cell line was obtained from ATCC and cultured in Kaighn's Modification of Ham's F-12 Medium (F-12K medium) (Life Technologies, USA), supplemented with 10% FBS (Sigma, Saint-Louis, Mo.). These cells were cultured at 37° C. in a humidified atmosphere containing 5% CO2.
(§2) BEAS-2B cells were seeded in 12-well CellBIND® surface culture plates (Corning Inc.) at 3 to 4×10^5 cells per well. A549 cells were seeded in 12-well plates at 2×10^5 cells per well.
(§3) Diesel Particulate Matter (Standard Reference Material SRM 1650b, National Institute of Standards & Technology, NIST, Gaithersburg, Md.) at 80 mg/ml DMSO (100%) were sonicated for 5 min and thereafter diluted 400 fold in medium. This dilution was twofold further diluted for the assay.
(§4) After 24 h, cells were treated with the diluted Diesel Particulate Matter at 100 μg/ml and in the presence of different concentrations of Withania somnifera extracts, other plant extracts, fractions and compounds as indicated. The final DSMO concentrations were 0.175%.
(§5) Untreated cells or cells treated with 0.175% DMSO were used as controls. After 24 h, cell supernatants were collected.
(§6) The concentrations of IL-6 and IL-8 in the supernatants were determined by Luminex kits (BIO-RAD Laboratories, Hercules, Calif.) and used in the LiquiChip Workstation IS 200 (Qiagen, Hilden, Germany). The data were evaluated with the LiquiChip Analyser software (Qiagen).

The next data set concerns MCP-1. Description: MCP-1 secretion of A549 cells treated with Diesel Particulate Matter. In kind it is cell-based, human. The text has this:
The human bronchial epithelial cell line BEAS-2B was from ATCC (American Type Culture Collection, Manassas, Va.) and cultured in Bronchial Epithelial cell Growth Medium (BEGM, Lonza, Wakersville, Md.) in CellBIND® surface plastic flasks (Corning Inc., Corning, N.Y.). The adenocarcinomic human alveolar basal epithelial A549 cell line was obtained from ATCC and cultured in Kaighn's Modification of Ham's F-12 Medium (F-12K medium) (Life Technologies, USA), supplemented with 10% FBS (Sigma, Saint-Louis, Mo.). These cells were cultured at 37° C. in a humidified atmosphere containing 5% CO2. BEAS-2B cells were seeded in 12-well CellBIND® surface culture plates (Corning Inc.) at 3 to 4×10^5 cells per well. A549 cells were seeded in 12-well plates at 2×10^5 cells per well. […] This dilution was twofold further diluted for the assay. After 24 h, cells were treated with the diluted Diesel Particulate Matter at 100 μg/ml and in the presence of different concentrations of Withania somnifera extracts, other plant extracts, fractions and compounds as indicated. The final DSMO concentrations were 0.175%. Untreated cells or cells treated with 0.175% DMSO were used as controls. After 24 h, cell supernatants were collected.

A further data set relates to BEAS-2B cells. Description: Toxicity / cell survival of BEAS-2B cells. The settings on record: at concentrations higher than 0.3 μg/ml. In kind it is cell-based, human. As for the experimental part:
(§7) Cell survival assays of the BEAS-2B and A549 cells were performed with AlamarBlue® Cell Viability Reagent (ThermoFisher Scientific) according to the protocol of the manufacturer. Non-toxic concentrations of the extracts, fractions and single compounds were selected for the assays.

Data set [2] has as its system IL-6. Description: IL-6 secretion of BEAS-2B cells treated with Diesel Particulate Matter. Type of data set: cell-based, human.
From the text: as §1, §2, §3, §4, §5, §6

The test system of a further data set is PGE2. Nature of the data set: PGE2 secretion of BEAS-2B cells treated with Diesel Particulate Matter. The settings on record: Table 10; 0.3125 μg/ml + PM 100 μg/ml, BEAS-2B, 24 h. Type of data set: cell-based, human.
From the text: as §1, §2, §3, §4, §5
Secreted PGE2 was determined by Enzyme Immuno Assay (EIA) (Cayman Chemicals, Ann Harbor, […].).

In the next data set the test system is A549 cells. Description: Toxicity / cell survival of A549 cells. Type of data set: cell-based, human. The settings on record: concentrations higher than 0.31 μg/ml. As for the experimental part: as §7
In a further data set the test system is IL-8. Nature of the data set: IL-8 secretion of A549 cells treated with Diesel Particulate Matter. Type of data set: cell-based, human.
From the text: as §1, §2, §3, §4, §5, §6

Where [3] appears, read: Table 5, 0.3125 μg/ml + PM 100 μg/ml, A549, 24 h.
Where [4] appears, read: Table 9, 0.3125 μg/ml + PM 100 μg/ml, A549, 24 h.
[5] abbreviates: Table 3, 0.3125 μg/ml + PM 100 μg/ml, 24 h.
The mark [6] stands for this setting: Table 7, 0.3125 μg/ml + PM 100 μg/ml, A549, 24 h.

Structures are written as SMILES.

Experimental findings from patent publication US20200129531A1, “USE OF WITHANIA SOMNIFERA EXTRACT TO PROTECT AGAINST AIR POLLUTION RELATED DISEASES” (DSM IP Assets B.V., priority 2017, published 2020) are described below.

Protocol for Nrf2: Luciferase Reporter Assay Using H411E-ARE8L Cells:
The medium for H411E-ARE8L cells was Dulbecco's Modified Eagle Medium (DMEM) high glucose containing heat inactivated 10% fetal bovine Serum (FBS). The media was exchanged every two to three-days. The DMEM assay medium used charcoal treated FBS (DMEMct). The transactivation assay was performed in 96 well plates. The plates were seeded with approximately 40′000 cells per well in 100 μl DMEMct and incubated over night at 37° C. Then the test compounds were diluted in DMEDct and given to the cells as described below. The cells were incubated for at least further 16 h at 37° C. and 5% CO2. Cells were equilibrated to room temperature. Lysis of the cells was done by adding 100 μL lysis solution, Steady-Glo© luciferase buffer according to the manufacturer (Promega) containing 0.5 mM DTT per well and incubated for 10 min at room temperature with gentle shaking. The luminescence was measured within 2 hours after incubation on a luminometer (Mithras, Berthold Technologies).
The negative control were cells in 0.5% DMSO.
All extracts, fractions and pure compounds were tested for concentrations that induce toxicity. Non-toxic concentrations were then selected for treating cells as describes in the methods section.

Turning to `CC1=C(CO)C(=O)O[C@@H]([C@@H](C)[C@H]2CC[C@H]3[C@@H]4C[C@H]5O[C@]56[C@@H](O)C=CC(=O)[C@]6(C)[C@H]4CC[C@]23C)C1` [Withaferin A, withaferin A], in the data set on Nrf2, the “Nrf-2 activity, Average” value was 32053 relative units of luciferase fluorescence. Further, in the data set on IL-6 [1] (A549), the “effect on PM-induced IL-6 secretion (in words)” value is “decrease”. In the data set on IL-6 [1] (setting [3]), the IL-6 is 3.5 pg/mL and the “IL-6 % of PM + DMSO” value is 29%. Also, in the data set on MCP-1 (A549), the “effect on PM-induced MCP-1 secretion (in words)” value was “significant decrease”. In the data set on MCP-1 (setting [4]), the MCP-1 turned out to be 632 pg/mL and the “MCP-1 % of PM + DMSO” value was found to be 66%. Moreover, the “toxicity to BEAS-2B cells” value with BEAS-2B cells is listed as “toxic”. The “effect on PM-induced IL-6 secretion (in words)” value in the data set with IL-6 [2] (0.3 μg/ml) is “lowered”. Besides, in the data set with IL-6 [2] (setting [5]), the IL-6 amounted to 19.4 pg/mL and the “IL-6 % of PM + DMSO” value was determined as 77%. Further, in the data set with PGE2, the PGE2 came out at 33.2 pg/mL and the “PGE2 % of PM + DMSO” value is 87%. Besides, in the data set with A549 cells, the “toxicity to A549 cells” value is listed as “toxic”. Further, the “inhibition of IL-8 secretion (in words)” value in the data set on IL-8 (A549, PM-induced, 0.31 μg/ml) is “highest inhibition of the pure compounds”. Also, in the data set on IL-8 (setting [6]), the IL-8 amounted to 106.7 pg/mL and the “IL-8 % of PM + DMSO” value amounted to 39%.
